# Reference: patent US20260250290A1 (BRISTOL-MYERS SQUIBB COMPANY, priority 2023, published 2026)
# pIC50: −log10 of the molar value. Where a name gives a salt, the structure may show the parent alone. Read-outs that look alike come from different tables or passages of the source.
# Target: T1, full length SGK1 (Homo sapiens, UniProt O00141)
# T1 construct: 125 μM full length SGK1 (Life Technologies Part #PR7358A); purchased Life Technologies PR7358A
# T1 sequence (O00141 1-431): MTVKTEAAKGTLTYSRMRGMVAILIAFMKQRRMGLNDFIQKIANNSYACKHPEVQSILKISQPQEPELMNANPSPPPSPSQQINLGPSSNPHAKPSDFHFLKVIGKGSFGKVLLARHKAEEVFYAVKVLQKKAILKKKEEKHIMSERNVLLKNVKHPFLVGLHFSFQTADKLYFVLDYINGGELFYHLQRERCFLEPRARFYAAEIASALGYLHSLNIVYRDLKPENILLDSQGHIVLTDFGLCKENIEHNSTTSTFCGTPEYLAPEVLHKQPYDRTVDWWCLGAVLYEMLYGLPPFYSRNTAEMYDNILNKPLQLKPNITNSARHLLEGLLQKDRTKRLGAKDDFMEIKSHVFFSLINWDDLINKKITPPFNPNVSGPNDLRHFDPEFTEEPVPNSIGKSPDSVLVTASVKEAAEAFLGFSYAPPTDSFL
# Assay: SGK1 inhibition Assay A (Caliper LabChip electrophoretic separation of fluorescent peptide substrate and phosphorylated product)
# Assay type: biochemical
# Details: 20 μM ATP, 40 min incubation
"pIC50 (Assay A, read-out: SGK1 IC50)",Compound,"pIC50 (SGK1 IC50, Assay A)"
6.79,"COc1cc(-c2cc(N3CCC[C@@H](NC(=O)c4ccc(Cl)s4)C3)c3c(N)ncnn23)cc(C(F)(F)F)n1 [Example 232, N-[(3R)-1-{4-amino-7-[2-methoxy-6-(trifluoromethyl)pyridin-4-yl]pyrrolo[2,1-f][1,2,4]triazin-5-yl}piperidin-3-yl]-5-chlorothiophene-2-carboxamide]",
7.92,"Nc1ncnn2c(C3=CCN(C(=O)c4ccno4)C3)cc(N3CCC[C@@H](NC(=O)c4ccc(Cl)s4)C3)c12 [Example 899, (R)-N-(1-(4-amino-7-(1-(isoxazole-5-carbony1)-2,5-dihydro-1H-pyrrol-3-y1)pyrrolo[2,1-f][1,2,4]triazin-5-y1)piperidin-3-y1)-5-chlorothiophene-2-carboxamide]",
7.96,"CN(C)CCOc1cc(C(F)F)sc1C(=O)N[C@@H]1CCCN(c2cc(-c3ccc(C(N)=O)nc3)n3ncnc(N)c23)C1 [Example 306, (R)-5-(4-amino-5-(3-(5-(difluoromethyl)-3-(2-(dimethylamino)ethoxy)thiophene-2-carboxamido)piperidin-1-yl)pyrrolo[2,1-f] [1,2,4]triazin-7-yl)picolinamide]",
,"CC(=O)N1CC=C(c2cc(N3CCC[C@@H](NC(=O)c4cccc(S(=O)(=O)F)c4)C3)c3c(N)ncnn23)C1 [Example 869, (R)-3-((1-(7-(1-acetyl-2,5-dihydro-1H-pyrrol-3-yl)-4-aminopyrrolo[2,1-f][1,2,4]triazin-5-yl)piperidin-3-yl)carbamoyl)benzenesulfonyl fluoride]",6.90
7.12,"CC(=O)N1CC=C(c2cc(N3CCC[C@@H](NC(=O)c4ccccc4N(C)C)C3)c3c(N)ncnn23)C1 [Example 470, (R)-N-(1-(7-(1-acetyl-2,5-dihydro-1H-pyrrol-3-yl)-4-aminopyrrolo[2,1-f][1,2,4]triazin-5-yl)piperidin-3-yl)-2-(dimethylamino)benzamide]",
9.00,"Nc1ncnn2c(C3=CCN(C(=O)c4ccon4)C3)cc(N3CCC[C@@H](NC(=O)c4ccc(Cl)s4)C3)c12 [Example 882, (R)-N-(1-(4-amino-7-(1-(isoxazole-3-carbonyl)-2,5-dihydro-1H-pyrrol-3-yl)pyrrolo[2,1-f][1,2,4]triazin-5-y1)piperidin-3-y1)-5-chlorothiophene-2-carboxamide]",
7.16,"CS(=O)(=O)c1ccc(-c2cc(N3CCC[C@@H](NC(=O)c4cccnc4)C3)c3c(N)ncnn23)cc1 [Example 50, (R)-N-(1-(4-amino-7-(4-(methylsulfonyl)phenyl)pyrrolo [2,1-f][1,2,4]triazin-5-yl)piperidin-3-yl)nicotinamide, TFA]",
7.74,"CC(=O)N1CC=C(c2cc(N3CCC[C@@H](NC(=O)c4sc(C(F)F)cc4OC4COC4)C3)c3c(N)ncnn23)C1 [Example 433, (R)—N-(1-(7-(1-acetyl-2,5-dihydro-1H-pyrrol-3-yl)-4-aminopyrrolo[2,1-f][1,2,4]triazin-5-yl)piperidin-3-yl)-5-(difluoromethyl)-3-(oxetan-3-yloxy)thiophene-2-carboxamide]",
8.15,"CC(=O)N1CC=C(c2cc(N3CCC[C@@H](NC(=O)c4sc(Cl)cc4OC4CN(C)C4)C3)c3c(N)ncnn23)C1 [Example 576, (R)-N-(1-(7-(1-acetyl-2,5-dihydro-1H-pyrrol-3-yl)-4-aminopyrrolo[2,1-f][1,2,4]triazin-5-yl)piperidin-3-yl)-5-chloro-3-((1-methylazetidin-3-yl)oxy)thiophene-2-carboxamide]",
8.00,"CC(=O)N1CC=C(c2cc(N3CCC[C@@H](NC(=O)c4cccc(OC5CN6CCC5CC6)n4)C3)c3c(N)ncnn23)C1 (stereo partly drawn) [Example 734, N-((R)-1-(7-(1-acetyl-2,5-dihydro-1H-pyrrol-3-yl)-4-aminopyrrolo[2,1-f][1,2,4]triazin-5-yl)piperidin-3-yl)-6-(quinuclidin-3-yloxy)picolinamide]",
8.15,"Nc1ncnn2c(-c3ccc(=O)[nH]c3)cc(N3CCC[C@@H](NC(=O)c4ccc(Cl)s4)C3)c12 [Example 536, (R)-N-(1-(4-amino-7-(6-oxo-1,6-dihydropyridin-3-yl)pyrrolo[2,1-f][1,2,4]triazin-5-yl)piperidin-3-yl)-5-chlorothiophene-2-carboxamide]",
8.40,"CN1CCN(CCOc2cc(Cl)sc2C(=O)N[C@@H]2CCCN(c3cc(-c4ccnc(C(F)F)c4)n4ncnc(N)c34)C2)CC1 [Example 342, (R)—N-(1-(4-amino-7-(2-(difluoromethyl)pyridin-4-yl)pyrrolo[2,1-f][1,2,4]triazin-5-yl)piperidin-3-yl)-5-chloro-3-(2-(4-methylpiperazin-1-yl)ethoxy)thiophene-2-carboxamide]",
8.22,"Cc1cc(Br)c(C(=O)N[C@@H]2CCCN(c3cc(-c4ccnc(F)c4)n4ncnc(N)c34)C2)s1 [Example 170, (R)—N-(1-(4-amino-7-(2-fluoropyridin-4-yl)pyrrolo[2,1-f][1,2,4]triazin-5-yl)piperidin-3-yl)-3-bromo-5-methylthiophene-2-carboxamide]",
8.52,"CC(=O)N1CC=C(c2cc(N3CCC[C@@H](NC(=O)c4sc(C5CC5)cc4OC4CCNCC4)C3)c3c(N)ncnn23)C1 [Example 376E, (R)—N-(1-(7-(1-acetyl-2,5-dihydro-1H-pyrrol-3-yl)-4-aminopyrrolo[2,1-f][1,2,4]triazin-5-yl)piperidin-3-yl)-5-cyclopropyl-3-(piperidin-4-yloxy)thiophene-2-carboxamide]",
8.10,"CN(C)CCOc1cc(Cl)sc1C(=O)N[C@@H]1CCCN(c2cc(C3=CCN(C(=O)C4CC(F)(F)C4)C3)n3ncnc(N)c23)C1 [Example 179, (R)-N-(1-(4-amino-7-(1-(3,3-difluorocyclobutane-1-carbonyl)-2,5-dihydro-1H-pyrrol-3-yl)pyrrolo[2,1-f][1,2,4]triazin-5-yl)piperidin-3-yl)-5-chloro-3-(2-(dimethylamino)ethoxy) thiophene-2-carboxamide, 2 TFA]",
7.28,"CS(=O)(=O)c1ccc(-c2cc(N3CCC[C@@H](NC(=O)c4cnn(CC(F)(F)F)c4)C3)c3c(N)ncnn23)cc1 [Example 76, (R)-N-(1-(4-amino-7-(4-(methylsulfonyl)phenyl)pyrrolo[2,1-f][1,2,4]triazin-5-yl)piperidin-3-yl)-1-(2,2,2-trifluoroethyl)-1H-pyrazole-4-carboxamide]",
7.55,"CS(=O)(=O)c1ccc(-c2cc(N3CCC[C@@H](NC(=O)c4cn5ccsc5n4)C3)c3c(N)ncnn23)cc1 [Example 45, (R)-N-(1-(4-amino-7-(4-(methylsulfonyl)phenyl)pyrrolo [2,1-f][1,2,4]triazin-5-yl)piperidin-3-yl)imidazo[2,1-b]thiazole-6-carboxamide]",
7.51,"CC(C)n1cc(C(=O)N[C@@H]2CCCN(c3cc(-c4ccc(S(C)(=O)=O)cc4)n4ncnc(N)c34)C2)cn1 [Example 77, (R)-N-(1-(4-amino-7-(4-(methylsulfonyl)phenyl)pyrrolo[2,1-f][1,2,4]triazin-5-yl)piperidin-3-yl)-1-isopropyl-1H-pyrazole-4-carboxamide, TFA]",
7.70,"CC(=O)Nc1cccc(-c2cc(N3CCC[C@@H](NC(=O)c4ccc(Cl)s4)C3)c3c(N)ncnn23)c1 [Example 208, (R)-N-(1-(7-(3-acetamidophenyl)-4-aminopyrrolo[2,1-f][1,2,4]triazin-5-yl)piperidin-3-yl)-5-chlorothiophene-2-carboxamide]",
7.85,"Nc1ncnn2c(C3=CCN(C(=O)C4CCNCC4)C3)cc(N3CCC[C@@H](NC(=O)c4ccc(Cl)s4)C3)c12 [Example 894, (R)-N-(1-(4-amino-7-(1-(piperidine-4-carbonyl)-2,5-dihydro-1H-pyrrol-3-yl)pyrrolo[2,1-f][1,2,4]triazin-5-yl)piperidin-3-y1)-5-chlorothiophene-2-carboxamide]",
7.70,"Nc1ncnn2c(-c3ccnc(F)c3)cc(N3CCC[C@@H](NC(=O)c4csc5c4CCCC5)C3)c12 [Example 160, (R)-N-(1-(4-amino-7-(2-fluoropyridin-4-yl)pyrrolo[2,1-f][1,2,4]triazin-5-yl)piperidin-3-yl)-4,5,6,7-tetrahydrobenzo[b] thiophene-3-carboxamide, TFA]",
6.58,"COC(=O)N1CC=C(c2cc(N3CCC[C@@H](NC(=O)c4n[nH]c5ccc(C#N)cc45)C3)c3c(N)ncnn23)C1 [Example 684, methyl (R)-3-(4-amino-5-(3-(5-cyano-1H-indazole-3-carboxamido)piperidin-1-yl)pyrrolo[2,1-f][1,2,4]triazin-7-yl)-2,5-dihydro-1H-pyrrole-1-carboxylate]",
6.58,"CS(=O)(=O)c1ccc(-c2cc(N3CCCC(NC(=O)Nc4ccccc4)C3)c3c(N)ncnn23)cc1 (stereo not shown) [Example 9, 1-(1-(4-amino-7-(4-(methylsulfonyl)phenyl)pyrrolo[2,1-f][1,2,4]triazin-5-yl)piperidin-3-yl)-3-phenylurea, TFA]",
7.85,"CC(=O)N1CC=C(c2cc(N3CCC[C@@H](NC(=O)c4sc(C)nc4OCCN(C)C)C3)c3c(N)ncnn23)C1 [Example 352, (R)—N-(1-(7-(1-acetyl-2,5-dihydro-1H-pyrrol-3-yl)-4-aminopyrrolo[2,1-f][1,2,4]triazin-5-yl)piperidin-3-yl)-4-(2-(dimethylamino)ethoxy)-2-methylthiazole-5-carboxamide]",

Compound,"pIC50 (Assay A, read-out: SGK1 IC50)","pIC50 (SGK1 IC50, Assay A)"
"(R)-N-(1-(4-amino-7-(1-ethyl-1H-pyrazol-5-yl)pyrrolo[2,1-f][1,2,4]triazin-5-yl)piperidin-3-yl)-6-(4-methylpiperazin-1-yl)picolinamide [Example 790]",7.52,
